The test system of assay [1] is NCI-H358 cells (express KRas G12C), Phospho-ERK. The assay is described as follows: Cellular inhibition of KRas G12C: Phospho-ERK in NCI-H358 cells. It is filed as cell-based. As to conditions: pERK(Thr202/Tyr204) normalized with GAPDH, NCI-H358 cells, 3 hours, read-out: IC50. The gist of the method:
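IC50 derived by 4-parameter fit of GAPDH-normalized pERK(Thr202/Tyr204) signal, as percent of DMSO control. Signal came from in-cell immunodetection with infrared secondaries after 3 h compound exposure of KRas G12C NCI-H358 cells at 0.5% DMSO.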

Another assay addresses KRas G12C (Homo sapiens, UniProt P01116, C118S/C51S/C80L/G12C). Put plainly: KRas G12C Modification Assay (LCMS detection of covalent adduct). Type of assay: binding. As to conditions: normalized percent of control; tested at 5 μM concentration for 3 hours. The gist of the method:
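Covalent modification was read by reverse-phase LC/MS of intact protein after compound exposure, each reaction stopped at its time point with 25 mM acetic acid. Unmodified-protein signal, taken as percent of total, was normalised to untreated protein and reported as POC.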

Like-named read-outs stand apart in the source and are kept apart here. Bounds are passed on as bounds.

From US10125134B2 (Mirati Therapeutics, Inc., priority 2016, dated 2018) come the findings set out here.

For orientation: IC50 means the point on the concentration scale where inhibition reaches its midpoint. Turning to `CC#CC(=O)N1CCN(c2nc(OC[C@@H]3CCCN3C)nc3c2CCN(c2cccc(C)c2C)C3)C[C@@H]1CC#N` [Example 389, 2-((S)-1-(but-2-ynoyl)-4-(7-(2,3-dimethylphenyl)-2-(((S)-1-methylpyrrolidin-2-yl)methoxy)-5,6,7,8-tetrahydropyrido[3,4-d]pyrimidin-4-yl)piperazin-2-yl)acetonitrile], the IC50 in assay [1] (Homo sapiens, NCI-H358, 3 h) was over 1000 nM. The POC entry at KRas G12C was “C (“C”>50% POC)”.

For the compound `C=CC(=O)N1CCN(c2nc(OC[C@@H]3[C@@H](O)CCN3C)nc3c2CCN(c2cccc4ccccc24)C3)C[C@@H]1CC#N` [Example 390, 2-((S)-1-acryloyl-4-(2-(((2R,3S)-3-hydroxy-1-methylpyrrolidin-2-yl)methoxy)-7-(naphthalen-1-yl)-5,6,7,8-tetrahydropyrido[3,4-d]pyrimidin-4-yl)piperazin-2-yl)acetonitrile], the IC50 in assay [1] (Homo sapiens, NCI-H358, 3 h) lay within 0.1 to 1000 nM. For the same compound, on KRas G12C, the POC entry was “C (“C”>50% POC)”.

On to `CC#CC(=O)N1CCN(c2nc(OC[C@@H]3CCCN3C)nc3c2CCN(c2cccc4cccc(Cl)c24)C3)C[C@@H]1CC#N` [Example 391, 2-((S)-1-(but-2-ynoyl)-4-(7-(8-chloronaphthalen-1-yl)-2-(((S)-1-methylpyrrolidin-2-yl)methoxy)-5,6,7,8-tetrahydropyrido[3,4-d]pyrimidin-4-yl)piperazin-2-yl)acetonitrile], for which the half-maximal inhibitory concentration (IC50) in assay [1] (Homo sapiens, NCI-H358, 3 h) fell in the range of 0.1 to 1000 nM. Moreover, the POC result at KRas G12C is recorded as “C (“C”>50% POC)”.

Consider `C=CC(=O)N1CCN(c2nc(OC[C@@H]3CCCN3C)nc3c2CCN(c2cccc(C)c2C)C3)C[C@@H]1CC#N` [Example 393, 2-((S)-1-acryloyl-4-(7-(2,3-dimethylphenyl)-2-(((S)-1-methylpyrrolidin-2-yl)methoxy)-5,6,7,8-tetrahydropyrido[3,4-d]pyrimidin-4-yl)piperazin-2-yl)acetonitrile], for which the 50% inhibitory concentration (IC50) in assay [1] (Homo sapiens, NCI-H358, 3 h) fell in the range of 0.1 to 1000 nM. Further, at KRas G12C, the POC entry is reported as “C (“C”>50% POC)”.

On to `C=CC(=O)N1CCN(c2nc(OC[C@]3(C)CCCN3C)nc3c2CCN(c2cccc4ccccc24)C3)CC1CC#N` (stereo partly drawn) [Example 394, 2-(1-acryloyl-4-(2-(((S)-1,2-dimethylpyrrolidin-2-yl)methoxy)-7-(naphthalen-1-yl)-5,6,7,8-tetrahydropyrido[3,4-d]pyrimidin-4-yl)piperazin-2-yl)acetonitrile], for which, in assay [1] (Homo sapiens, NCI-H358, 3 h), the IC50 is 0.1 to 1000 nM. For the same compound, the POC entry at KRas G12C is “C (“C”>50% POC)”.

On to `C=CC(=O)N1CCN(c2nc(OC[C@@H]3CCCN3CC3CC3)nc3c2CCN(c2cccc4ccccc24)C3)CC1CC#N` (stereo partly drawn) [Example 395, 2-(1-acryloyl-4-(2-(((S)-1-(cyclopropylmethyl)pyrrolidin-2-yl)methoxy)-7-(naphthalen-1-yl)-5,6,7,8-tetrahydropyrido[3,4-d]pyrimidin-4-yl)piperazin-2-yl)acetonitrile], for which the 50% inhibitory concentration (IC50) in assay [1] (Homo sapiens, NCI-H358, 3 h) was in the range of 0.1 to 1000 nM. Besides, the POC result at KRas G12C is “C (“C”>50% POC)”.

For the compound `C=CC(=O)N1CCN(c2nc(OCC(C)(C)N(C)C)nc3c2CCN(c2cccc4ccccc24)C3)CC1CC#N` (stereo not shown) [Example 396, 2-(1-acryloyl-4-(2-(2-(dimethylamino)-2-methylpropoxy)-7-(naphthalen-1-yl)-5,6,7,8-tetrahydropyrido[3,4-d]pyrimidin-4-yl)piperazin-2-yl)acetonitrile], the half-maximal inhibitory concentration (IC50) in assay [1] lay in the range of 0.1 to 1000 nM. Besides, the POC result at KRas G12C was “C (“C”>50% POC)”.

On to `C=CC(=O)N1CCN(c2nc(OC[C@@H]3CCCN3CC(=O)N(C)C)nc3c2CCN(c2cccc4ccccc24)C3)CC1CC#N` (stereo partly drawn) [Example 397, 2-((2S)-2-(((4-(4-acryloyl-3-(cyanomethyl)piperazin-1-yl)-7-(naphthalen-1-yl)-5,6,7,8-tetrahydropyrido[3,4-d]pyrimidin-2-yl)oxy)methyl)pyrrolidin-1-yl)-N,N-dimethylacetamide], for which the IC50 in assay [1] (Homo sapiens, NCI-H358, 3 h) lay within 0.1 to 1000 nM. The POC entry on KRas G12C is recorded as “C (“C”>50% POC)”.

Regarding `C=CC(=O)N1CCN(c2nc(OC[C@@H]3CCCN3CC)nc3c2CCN(c2cccc4ccccc24)C3)C[C@@H]1CC#N` [Example 399, 2-((S)-1-acryloyl-4-(2-(((S)-1-ethylpyrrolidin-2-yl)methoxy)-7-(naphthalen-1-yl)-5,6,7,8-tetrahydropyrido[3,4-d]pyrimidin-4-yl)piperazin-2-yl)acetonitrile], the IC50 in assay [1] (Homo sapiens, NCI-H358, 3 h) lay in the range of 0.1 to 1000 nM. In addition, on KRas G12C, the POC result is “C (“C”>50% POC)”.

For the compound `CCN1CCC[C@H]1COc1nc2c(c(N3CCN(C(=O)/C=C/CN(C)C)[C@@H](CC#N)C3)n1)CCN(c1cccc3ccccc13)C2` [Example 400, 2-((S)-1-((E)-4-(dimethylamino)but-2-enoyl)-4-(2-(((S)-1-ethylpyrrolidin-2-yl)methoxy)-7-(naphthalen-1-yl)-5,6,7,8-tetrahydropyrido[3,4-d]pyrimidin-4-yl)piperazin-2-yl)acetonitrile], in assay [1] (Homo sapiens, NCI-H358, 3 h), the IC50 lay within 0.1 to 1000 nM. At KRas G12C, the POC result is “C (“C”>50% POC)”.

In the case of `C=CC(=O)N1CCN(c2nc(OC[C@@H]3CCCN3CC(=O)N(C)C)nc3c2CCN(c2cccc4ccccc24)C3)C[C@@H]1CC#N` [Example 401, 2-((S)-2-(((4-((S)-4-acryloyl-3-(cyanomethyl)piperazin-1-yl)-7-(naphthalen-1-yl)-5,6,7,8-tetrahydropyrido[3,4-d]pyrimidin-2-yl)oxy)methyl)pyrrolidin-1-yl)-N,N-dimethylacetamide], the IC50 in assay [1] (Homo sapiens, NCI-H358, 3 h) fell in the range of 0.1 to 1000 nM. The POC result on KRas G12C is “C (“C”>50% POC)”.

Turning to `C=CC(=O)N1CCN(c2nc(N3CC[C@H](N(C)C)C3)nc3c2CCN(c2cccc4ccccc24)C3)C[C@@H]1CC#N` [Example 402], the IC50 in assay [1] (Homo sapiens, NCI-H358, 3 h) was 0.1 to 1000 nM. Further, the POC result at KRas G12C was “C (“C”>50% POC)”.

As for `Cc1cccc(N2CCc3c(nc(OC[C@@H]4CCCN4C)nc3N3CCN(C(=O)/C=C/CN(C)C)[C@@H](CC#N)C3)C2)c1C` [Example 403, 2-((S)-1-((E)-4-(dimethylamino)but-2-enoyl)-4-(7-(2,3-dimethylphenyl)-2-(((S)-1-methylpyrrolidin-2-yl)methoxy)-5,6,7,8-tetrahydropyrido[3,4-d]pyrimidin-4-yl)piperazin-2-yl)acetonitrile], in assay [1] (Homo sapiens, NCI-H358, 3 h), the IC50 was 0.1 to 1000 nM. The POC result on KRas G12C was “C (“C”>50% POC)”.

Regarding `C=CC(=O)N1CCN(c2nc(N3CCCC(N(C)C)C3)nc3c2CCN(c2cccc4ccccc24)C3)C[C@@H]1CC#N` (stereo partly drawn) [Example 404, 2-((2S)-1-acryloyl-4-(2-(3-(dimethylamino)piperidin-1-yl)-7-(naphthalen-1-yl)-5,6,7,8-tetrahydropyrido[3,4-d]pyrimidin-4-yl)piperazin-2-yl)acetonitrile], the half-inhibitory concentration (IC50) in assay [1] (Homo sapiens, NCI-H358, 3 h) was 0.1 to 1000 nM. In addition, on KRas G12C, the POC entry was “C (“C”>50% POC)”.

As for `C=CC(=O)N1CCN(c2nc(OC[C@@H]3CCCN3C)nc3c2CCN(c2cccc(F)c2Cl)C3)C[C@@H]1CC#N` [Example 405, 2-((S)-1-acryloyl-4-(7-(2-chloro-3-fluorophenyl)-2-(((S)-1-methylpyrrolidin-2-yl)methoxy)-5,6,7,8-tetrahydropyrido[3,4-d]pyrimidin-4-yl)piperazin-2-yl)acetonitrile], in assay [1] (Homo sapiens, NCI-H358, 3 h), the IC50 fell in the range of 0.1 to 1000 nM. In addition, the POC result on KRas G12C is recorded as “C (“C”>50% POC)”.

With `C=CC(=O)N1CCN(c2nc(OC[C@@H]3CCCN3C)nc3c2CCN(c2cccc(F)c2F)C3)C[C@@H]1CC#N` [Example 406, 2-((S)-1-acryloyl-4-(7-(2,3-difluorophenyl)-2-(((S)-1-methylpyrrolidin-2-yl)methoxy)-5,6,7,8-tetrahydropyrido[3,4-d]pyrimidin-4-yl)piperazin-2-yl)acetonitrile], the IC50 in assay [1] (Homo sapiens, NCI-H358, 3 h) is over 1000 nM. Further, at KRas G12C, the POC entry is on record as “C (“C”>50% POC)”.

For `C=CC(=O)N1CCN(c2nc(NC[C@@H]3CCCN3C)nc3c2CCN(c2cccc4ccccc24)C3)C[C@@H]1CC#N` [Example 407, 2-((S)-1-acryloyl-4-(2-((((S)-1-methylpyrrolidin-2-yl)methyl)amino)-7-(naphthalen-1-yl)-5,6,7,8-tetrahydropyrido[3,4-d]pyrimidin-4-yl)piperazin-2-yl)acetonitrile], in assay [1] (Homo sapiens, NCI-H358, 3 h), the IC50 is over 1000 nM. On KRas G12C, the POC entry is reported as “C (“C”>50% POC)”.

Regarding `C=CC(=O)N1CCN(c2nc(OCCN3CCCCC3)nc3c2CCN(c2cccc4ccccc24)C3)C[C@@H]1CC#N` [Example 408, (S)-2-(1-acryloyl-4-(7-(naphthalen-1-yl)-2-(2-(piperidin-1-yl)ethoxy)-5,6,7,8-tetrahydropyrido[3,4-d]pyrimidin-4-yl)piperazin-2-yl)acetonitrile], in assay [1] (Homo sapiens, NCI-H358, 3 h), the IC50 was 0.1 to 1000 nM. Also, at KRas G12C, the POC result was “C (“C”>50% POC)”.

As to `C=CC(=O)N1CCN(c2nc(OC[C@@H]3CCN(C)C3)nc3c2CCN(c2cccc4ccccc24)C3)C[C@@H]1CC#N` [Example 409, 2-((S)-1-acryloyl-4-(2-(((R)-1-methylpyrrolidin-3-yl)methoxy)-7-(naphthalen-1-yl)-5,6,7,8-tetrahydropyrido[3,4-d]pyrimidin-4-yl)piperazin-2-yl)acetonitrile], in assay [1] (Homo sapiens, NCI-H358, 3 h), the 50% inhibitory concentration (IC50) fell in the range of 0.1 to 1000 nM. For the same compound, the POC result on KRas G12C is “C (“C”>50% POC)”.

With `C=CC(=O)N1CCN(c2nc(OC[C@@H]3CCCN3C)nc3c2CCN(c2cccc(F)c2C)C3)CC1CC#N` (stereo partly drawn) [Example 410, 2-(1-acryloyl-4-(7-(3-fluoro-2-methylphenyl)-2-(((S)-1-methylpyrrolidin-2-yl)methoxy)-5,6,7,8-tetrahydropyrido[3,4-d]pyrimidin-4-yl)piperazin-2-yl)acetonitrile], in assay [1] (Homo sapiens, NCI-H358, 3 h), the IC50 fell in the range of 0.1 to 1000 nM. In addition, the POC result at KRas G12C is reported as “C (“C”>50% POC)”.
